Experiment [1] has as its target T1, 14-3-3 protein gamma (Homo sapiens, UniProt P61981).
T1 sequence (P61981 whole entry): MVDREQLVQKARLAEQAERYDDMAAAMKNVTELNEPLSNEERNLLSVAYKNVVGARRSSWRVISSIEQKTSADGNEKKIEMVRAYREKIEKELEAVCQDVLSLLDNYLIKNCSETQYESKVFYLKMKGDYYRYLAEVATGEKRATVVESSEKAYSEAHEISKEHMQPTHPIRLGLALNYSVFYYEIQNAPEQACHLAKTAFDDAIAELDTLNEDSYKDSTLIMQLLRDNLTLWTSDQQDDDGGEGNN
Kind of experiment: Inhibition of recombinant GST-tagged 14-3-3gamma interaction with PRAS40 in Cos7 cell lysate by ELISA. It counts as cell-free.

The target of experiment [2] is T1, 14-3-3 protein gamma. Kind of experiment: Inhibition of recombinant GST-tagged 14-3-3gamma interaction with TMR-pS259-Raf peptide after 30 mins by fluorescence polarization assay. In general terms: Fluorescence polarisation rises when a labelled molecule tumbles more slowly, as on binding a larger partner.

Regarding `Oc1ccc(C2OCCc3cc(O)c(O)cc32)cc1O` (racemic) [BLAPSIN B], the IC50 (in general, the concentration that inhibits the measured activity by half) on 14-3-3 protein gamma [1] is 10 µM; at 14-3-3 protein gamma [2], 2.5 µM.
For the compound `O=C(Cc1ccc(O)c(O)c1)OCCc1ccc(O)c(O)c1` [BLAPSIN A], the IC50 at 14-3-3 protein gamma [1] turned out to be 9.2 µM; at 14-3-3 protein gamma [2], 2 µM.

The values above are taken from ChEMBL document CHEMBL2029347, “Identification of blapsins A and B as potent small-molecule 14-3-3 inhibitors from the insect Blaps japanensis” (Bioorg Med Chem Lett, 2012).
